Experimental data taken from US20040171563A1, “Novel use of tyrosine kinase inhibitor” (priority 2001, published 2004).

Columns and labels:
GTK = molecular target: T1, GTK (Mus musculus, UniProt Q922K9); test: in vitro kinase assay for GTK activity; type: biochemical; details: for inhibition of GTK (qualitative): screening of commercially available tyrosine kinase inhibitors; for Ki: inhibition of GTK activity in in vitro kinase assays
T1 construct: made in house
Experimental: (§1) Ki using AG957 was approximately 1 μM and that of SU4984 was about 10 μM. These inhibitors were added to Islets of Langerhans in in vitro cultures together with the cytokines IL-1β+IFN-γ, and apoptosis was determined by propidium iodide staining after 24 h. It was shown that AG957 and SU 4984 prevented cytokine-induced apoptosis by 60 and 75%, respectively, which further lends support to the view that GTK-inhibition prevents beta-cell destruction in type 1 diabetes. […] It is expected that also human FRK will be inhibited.
Assay for the assessment of GTK (FRK) kinase activity: The basis for screening for specific GTK kinase inhibitors is in vitro kinase assays, utilizing baculovirus produced GTK which is purified by immunoprecipitation using the GTK antibody. Both these reagents are available for the skilled person within this field. Phosphorylation of a synthetic peptide substrate will be studied (Annerén and Welsh, 2000) testing different concentrations of inhibitors, and IC50 values can then be determined for inhibition of GTK kinase activity. The specificity of drug-induced GTK-inhibition is then assessed by comparing the IC50 values with those of other tyrosine kinases.

Islets of Langerhans = test: cytokine-induced apoptosis in Islets of Langerhans, propidium iodide staining; type: cell-based; details: in vitro islet cultures with IL-1β+IFN-γ, propidium iodide staining after 24 h
Experimental: as §1

T1 sequence (Q922K9 whole entry): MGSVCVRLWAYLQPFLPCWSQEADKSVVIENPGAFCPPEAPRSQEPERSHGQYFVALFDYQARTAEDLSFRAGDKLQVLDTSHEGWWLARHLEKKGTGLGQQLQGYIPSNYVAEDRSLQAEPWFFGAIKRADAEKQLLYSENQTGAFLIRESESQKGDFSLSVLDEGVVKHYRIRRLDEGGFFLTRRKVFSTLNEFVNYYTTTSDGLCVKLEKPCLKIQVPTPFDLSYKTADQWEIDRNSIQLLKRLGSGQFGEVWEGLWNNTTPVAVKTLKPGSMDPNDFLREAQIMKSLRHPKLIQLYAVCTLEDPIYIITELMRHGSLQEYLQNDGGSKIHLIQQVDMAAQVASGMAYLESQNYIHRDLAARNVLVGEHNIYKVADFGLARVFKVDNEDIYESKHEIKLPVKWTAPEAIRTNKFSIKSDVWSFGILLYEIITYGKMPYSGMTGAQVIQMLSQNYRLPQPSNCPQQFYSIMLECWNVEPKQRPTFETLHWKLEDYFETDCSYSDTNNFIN

| Ki (GTK) [µM] | SMILES | inhibition of GTK (qualitative) (GTK) | prevention of cytokine-induced apoptosis (Islets of Langerhans) [%] |
| --- | --- | --- | --- |
|  | N#C/C(=C\c1ccc(O)c(O)c1)C(=O)O [AG 30] | inhibit GTK with a fair degree of specificity |  |
| ~10 | O=CN1CCN(c2ccc(/C=C3\C(=O)Nc4ccccc43)cc2)CC1 [SU4984] | inhibited GTK activity in in vitro kinase assays with a reasonably high degree of specificity | 75 |
| ~1 | COC(=O)c1ccc(NCc2cc(O)ccc2O)cc1 [AG957] | inhibited GTK activity in in vitro kinase assays with a reasonably high degree of specificity | 60 |
